# Data published in US20230212517A1, “METHODS FOR GENERATING HEMATOPOIETIC STEM CELLS” (The Brigham and Women's Hospital, Inc., priority 2018, published 2023).
# Test system: human iPSC-derived HE cells
# Experiment: Endothelial-to-hematopoietic transition in human iPSC-derived HE cells (FACS, CD34/CD45)
# Format: cell-based
# Details: Yoda1 between 6.25 and 100 μM
# Procedure: Embryoid body and hemogenic endothelium differentiation was performed as described in (Sugimura et al. 2017; Ditadi et al. 2015). Briefly, hiPSC colonies were dissociated with 0.05% trypsin for 5 min at 37° C., washed with PBS+2% FBS, and resuspended in STEMPRO-34 medium (Invitrogen, 10639-011) supplemented with L-glutamine (2 mM), penicillin/streptomycin (10 ng/ml), ascorbic acid (1 mM), human holo-Transferrin (150 μg/ml, Sigma T0665), monothioglycerol (MTG, 0.4 mM), BMP4 (10 ng/ml), and Y-27632 (10 μM). Five million cells were seeded into 10 cm dishes (Ezsphere, Asahi Glass) for the spheroid formation. On Day 1, bFGF (5 ng/ml) and BMP4 (10 ng/ml) was added to the medium. On Day 2, the media was changed with the STEMPRO-34 supplemented with SB431542 (6 μM), CHIR99021 (3 μM), bFGF (5 ng/ml), and BMP4 (10 ng/ml). On Day 3, the medium was replaced with STEMPRO-34 supplemented with VEGF (15 ng/ml) and bFGF (10 ng/ml). On day 6, the medium was changed to STEMPRO-34 supplemented with bFGF (5 ng/ml), VEGF (15 ng/ml), interleukin (IL)-6 (10 ng/ml), IGF-1 (25 ng/ml), IL-11 (5 ng/ml), SCF (50 ng/ml) and EPO (2IU). The cells were maintained in a 5% CO2, 5% O2 and 95% humidity incubator. […]
smiles,measurement,setting,value
"Clc1cccc(Cl)c1CSc1nnc(-c2cnccn2)s1 [Yoda1, 2-[5-[[(2,6-Dichlorophenyl)methyl]thio]-1,3,4-thiadiazol-2-yl]-pyrazine]",dose dependence of the endothelial-to-hematopoietic transition,,dose dependent
same,endothelial-to-hematopoietic transition,"7 days, data not shown",induced the endothelial-to-hematopoietic transition
